Experimental data: patent US20230157952A1, “METHOD FOR IMPROVING THE STABILITY OF A PHARMACEUTICAL COMPOSITION COMPRISING A HIGH PENETRATION DRUG, AND THE PHARMACEUTICAL COMPOSITION OBTAINED THEREFROM” (Techfields Inc., priority 2020, published 2023)

What was measured:
[1] = Effect of concentration on the stability of the solution (purity over time); details: in water at 25° C.
[2] = Effect of temperature (and pH) on the stability of the solution (purity); assay type: physicochemical; details: 7% solution in water

CCN(CC)CCOC(=O)CCc1nc(-c2ccccc2)c(-c2ccccc2)o1.Cl [2-(diethylamino)ethyl 4,5-diphenyl-2-oxazolepropionate•HCl]
Purity at Day 3 ([1]; 0.01 wt %): 83.8% | Purity at Day 7 ([1]; 0.01 wt %): 73.9% | Purity at Day 14 ([1]; 0.01 wt %): 58.9% | Purity at Day 21 ([1]; 0.01 wt %): 47.6% | Purity at Day 28 ([1]; 0.01 wt %): 38.9% | Purity at hr 0 ([1]; 0.01 wt %): 97.8% | Purity at Day 3 ([1]; 0.1 wt %): 94.7% | Purity at Day 7 ([1]; 0.1 wt %): 90.6% | Purity at Day 14 ([1]; 0.1 wt %): 83.5% | Purity at Day 21 ([1]; 0.1 wt %): 75.7% | Purity at Day 28 ([1]; 0.1 wt %): 65.5% | Purity at hr 0 ([1]; 0.1 wt %): 97.9% | Purity at Day 3 ([1]; 1 wt %): 95.3% | Purity at Day 7 ([1]; 1 wt %): 92.9% | Purity at Day 14 ([1]; 1 wt %): 88.9% | Purity at Day 21 ([1]; 1 wt %): 84.6% | Purity at Day 28 ([1]; 1 wt %): 79.2% | Purity at hr 0 ([1]; 1 wt %): 98.0% | Purity at Day 3 ([1]; 3 wt %): 96.3% | Purity at Day 7 ([1]; 3 wt %): 95.1% | Purity at Day 14 ([1]; 3 wt %): 92.5% | Purity at Day 21 ([1]; 3 wt %): 89.0% | Purity at Day 28 ([1]; 3 wt %): 85.7% | Purity at hr 0 ([1]; 3 wt %): 98.4% | Purity at Day 3 ([1]; 5 wt %): 98.2% | Purity at Day 7 ([1]; 5 wt %): 97.8% | Purity at Day 14 ([1]; 5 wt %): 97.0% | Purity at Day 21 ([1]; 5 wt %): 96.3% | Purity at Day 28 ([1]; 5 wt %): 95.0% | Purity at hr 0 ([1]; 5 wt %): 98.5% | Purity at Day 3 ([1]; 7 wt %): 98.6% | Purity at Day 7 ([1]; 7 wt %): 98.2% | Purity at Day 14 ([1]; 7 wt %): 98.0% | Purity at Day 21 ([1]; 7 wt %): 97.7% | Purity at Day 28 ([1]; 7 wt %): 97.4% | Purity at hr 0 ([1]; 7 wt %): 98.8% | Purity at Day 3 ([1]; 8 wt %): 98.7% | Purity at Day 7 ([1]; 8 wt %): 98.3% | Purity at Day 14 ([1]; 8 wt %): 97.9% | Purity at Day 21 ([1]; 8 wt %): 97.7% | Purity at Day 28 ([1]; 8 wt %): 97.5% | Purity at hr 0 ([1]; 8 wt %): 98.7% | Purity at Day 3 ([1]; 10 wt %): 98.6% | Purity at Day 7 ([1]; 10 wt %): 98.5% | Purity at Day 14 ([1]; 10 wt %): 98.2% | Purity at Day 21 ([1]; 10 wt %): 97.8% | Purity at Day 28 ([1]; 10 wt %): 97.4% | Purity at hr 0 ([1]; 10 wt %): 98.8% | Purity at Day 3 ([1]; 15 wt %): 98.7% | Purity at Day 7 ([1]; 15 wt %): 98.4% | Purity at Day 14 ([1]; 15 wt %): 98.1% | Purity at Day 21 ([1]; 15 wt %): 97.9% | Purity at Day 28 ([1]; 15 wt %): 97.5% | Purity at hr 0 ([1]; 15 wt %): 98.8% | Purity at Day 3 ([1]; 20 wt %): 98.7% | Purity at Day 7 ([1]; 20 wt %): 98.5% | Purity at Day 14 ([1]; 20 wt %): 98.2% | Purity at Day 21 ([1]; 20 wt %): 97.8% | Purity at Day 28 ([1]; 20 wt %): 97.5% | Purity at hr 0 ([1]; 20 wt %): 98.7% | Purity at Day 3 ([1]; 30 wt %): 98.7% | Purity at Day 7 ([1]; 30 wt %): 98.5% | Purity at Day 14 ([1]; 30 wt %): 98.3% | Purity at Day 21 ([1]; 30 wt %): 97.9% | Purity at Day 28 ([1]; 30 wt %): 97.6% | Purity at hr 0 ([1]; 30 wt %): 98.8% | Purity at Day 3 ([1]; 50 wt %): 98.7% | Purity at Day 7 ([1]; 50 wt %): 98.5% | Purity at Day 14 ([1]; 50 wt %): 98.2% | Purity at Day 21 ([1]; 50 wt %): 97.8% | Purity at Day 28 ([1]; 50 wt %): 97.5% | Purity at hr 0 ([1]; 50 wt %): 98.8% | Stability when the concentration is 0.1% or lower [1]: not stable | Stability of the solution at a temperature higher than 40° C. and a pH lower than 3 or greater than 6 [2]: not stable

CCN(CC)CCOC(=O)Cc1sc(-c2ccccc2)nc1-c1ccc(Cl)cc1.Cl [2-(diethylamino)ethyl 4-(4-chlorophenyl)-2-phenyl-5-thiazoleacetate•HCl]
Purity at Day 3 ([1]; 0.01 wt %): 83.4% | Purity at Day 7 ([1]; 0.01 wt %): 74.2% | Purity at Day 14 ([1]; 0.01 wt %): 58.4% | Purity at Day 21 ([1]; 0.01 wt %): 46.5% | Purity at Day 28 ([1]; 0.01 wt %): 37.5% | Purity at hr 0 ([1]; 0.01 wt %): 98.4% | Purity at Day 3 ([1]; 0.1 wt %): 96.7% | Purity at Day 7 ([1]; 0.1 wt %): 95.6% | Purity at Day 14 ([1]; 0.1 wt %): 91.5% | Purity at Day 21 ([1]; 0.1 wt %): 84.7% | Purity at Day 28 ([1]; 0.1 wt %): 80.5% | Purity at hr 0 ([1]; 0.1 wt %): 98.5% | Purity at Day 3 ([1]; 1 wt %): 96.6% | Purity at Day 7 ([1]; 1 wt %): 95.5% | Purity at Day 14 ([1]; 1 wt %): 92.9% | Purity at Day 21 ([1]; 1 wt %): 90.9% | Purity at Day 28 ([1]; 1 wt %): 89.1% | Purity at hr 0 ([1]; 1 wt %): 98.7% | Purity at Day 3 ([1]; 3 wt %): 96.5% | Purity at Day 7 ([1]; 3 wt %): 96.2% | Purity at Day 14 ([1]; 3 wt %): 94.8% | Purity at Day 21 ([1]; 3 wt %): 94.0% | Purity at Day 28 ([1]; 3 wt %): 92.7% | Purity at hr 0 ([1]; 3 wt %): 98.9% | Purity at Day 3 ([1]; 5 wt %): 98.4% | Purity at Day 7 ([1]; 5 wt %): 98.0% | Purity at Day 14 ([1]; 5 wt %): 97.8% | Purity at Day 21 ([1]; 5 wt %): 96.6% | Purity at Day 28 ([1]; 5 wt %): 95.4% | Purity at hr 0 ([1]; 5 wt %): 98.9% | Purity at Day 3 ([1]; 7 wt %): 98.6% | Purity at Day 7 ([1]; 7 wt %): 98.2% | Purity at Day 14 ([1]; 7 wt %): 98.2% | Purity at Day 21 ([1]; 7 wt %): 97.7% | Purity at Day 28 ([1]; 7 wt %): 97.5% | Purity at hr 0 ([1]; 7 wt %): 99.1% | Purity at Day 3 ([1]; 8 wt %): 98.7% | Purity at Day 7 ([1]; 8 wt %): 98.3% | Purity at Day 14 ([1]; 8 wt %): 97.9% | Purity at Day 21 ([1]; 8 wt %): 97.9% | Purity at Day 28 ([1]; 8 wt %): 97.6% | Purity at hr 0 ([1]; 8 wt %): 99.1% | Purity at Day 3 ([1]; 10 wt %): 98.8% | Purity at Day 7 ([1]; 10 wt %): 98.5% | Purity at Day 14 ([1]; 10 wt %): 98.3% | Purity at Day 21 ([1]; 10 wt %): 98.1% | Purity at Day 28 ([1]; 10 wt %): 97.5% | Purity at hr 0 ([1]; 10 wt %): 99.2% | Purity at Day 3 ([1]; 15 wt %): 98.7% | Purity at Day 7 ([1]; 15 wt %): 98.6% | Purity at Day 14 ([1]; 15 wt %): 98.4% | Purity at Day 21 ([1]; 15 wt %): 98.1% | Purity at Day 28 ([1]; 15 wt %): 97.8% | Purity at hr 0 ([1]; 15 wt %): 99.1% | Purity at Day 3 ([1]; 20 wt %): 98.8% | Purity at Day 7 ([1]; 20 wt %): 98.5% | Purity at Day 14 ([1]; 20 wt %): 98.2% | Purity at Day 21 ([1]; 20 wt %): 98.1% | Purity at Day 28 ([1]; 20 wt %): 97.7% | Purity at hr 0 ([1]; 20 wt %): 99.0% | Purity at Day 3 ([1]; 30 wt %): 98.7% | Purity at Day 7 ([1]; 30 wt %): 98.5% | Purity at Day 14 ([1]; 30 wt %): 98.3% | Purity at Day 21 ([1]; 30 wt %): 98.0% | Purity at Day 28 ([1]; 30 wt %): 97.8% | Purity at hr 0 ([1]; 30 wt %): 99.1% | Purity at Day 3 ([1]; 50 wt %): 98.8% | Purity at Day 7 ([1]; 50 wt %): 98.5% | Purity at Day 14 ([1]; 50 wt %): 98.2% | Purity at Day 21 ([1]; 50 wt %): 98.9% | Purity at Day 28 ([1]; 50 wt %): 97.8% | Purity at hr 0 ([1]; 50 wt %): 99.1% | Stability when the concentration is 0.1% or lower [1]: not stable | Stability of the solution at a temperature higher than 40° C. and a pH lower than 3 or greater than 6 [2]: not stable
